The values below come from patent US9260504B2, “N- and C-terminal substituted antagonistic analogs of GH-RH” (University of Miami, priority 2008, dated 2016).

Marks after values point to notes of the source that are not given here.

The test system of assay [1] is GH secretion. The conditions noted are these: cited from earlier work.
The test system of assay [2] is rat anterior pituitary adenylate cyclase. As to conditions: cited from earlier work.
Assay [3] concerns MDA-MB-231 human estrogen independent breast cancer. As to the kind of experiment: MDA-MB-231 human estrogen independent breast cancer xenografts in nude mice. As to conditions: 5 μg/day s.c., 28 days. Format: in vivo. On the procedure:
Female nude mice were xenografted s.c. with MDA-MB-231 tumor tissue from donor animals. When tumors had grown to a mean volume of approximately 50 mm^3, the mice were randomly assigned into 2 experimental groups with 10 animals in each group and received single daily injections for 28 days as follows: 1. Control (vehicle solution); 2. Peptide 1109 (5 μg/day s.c.). Tumor volumes were measured once a week. The experiment was ended on day 28 by sacrificing the mice under Isoflurane anesthesia. Resulting tumors were cleaned, weighed, and snap-frozen until further analyses. Statistical analyses of the measurement results were done by two-tailed t-test, p<0.05 being considered significant.
(In general: Xenograft models place foreign cells or tissue in a host animal.)

In assay [4] the test system is NCI-N87 human gastric cancer. As to the kind of experiment: NCI-N87 human gastric cancer xenografts in nude mice. The assay is classed as in vivo. As to conditions: 10 μg/day s.c. On the procedure:
NCI-N87 cancers were transplanted s.c. into both flank areas of 30 female nude mice. The mice were randomly assigned into 4 experimental groups with 6 to 9 animals in each group and received single daily injections for 77 days as follows: 1. Control (vehicle solution); 2. JMR-132 (10 μg/day s.c.); 3. Peptide 1109 (10 μg/day s.c.); 4. Peptide 11479 (10 μg/day s.c.). Tumor volumes were measured once a week. The experiment was ended on day 77 by sacrificing the mice under Isoflurane anesthesia. Resulting tumors were cleaned, weighed, and snap-frozen until further analyses. Statistical analyses of the measurement results were done by two-tailed t-test, p<0.05 being considered significant. Data are presented as the means±S.E.

Assay [5] deals with SK-Hep-1 human hepatocellular cancer. As to the kind of experiment: SK-Hep-1 human hepatocellular cancer xenografts in nude mice. The assay is classed as in vivo. The conditions noted are these: for Tumor volume (mm^3) on day 135: means±S.E.; for Tumor weights (mg): tumors removed at autopsy. As to the method:
SK-Hep-1 cancers were transplanted s.c. into both flank areas of 66 female nude mice, and allowed to grow for 47 days before starting the treatment with GH-RH antagonists. The mice were randomly assigned into 4 experimental groups with 8 animals in each group and received single daily injections for 135 days as follows: 1. Control (vehicle solution); 2. JMR-132 (10 μg/day s.c.); 3. Peptide 1109 (5 μg/day s.c.); 4. Peptide 1109 (10 μg/day s.c.). Tumor volumes were measured once a week. The experiment was ended on day 135 by sacrificing the mice under Isoflurane anesthesia. Resulting tumors were cleaned, weighed, and snap-frozen until further analyses. Statistical analyses of the measurement results were done by two-tailed t-test, p<0.05 being considered significant. Data are presented as the means±S.E.

The subject of assay [6] is PC-3 human hormone-independent prostate cancer. As to the kind of experiment: PC-3 human prostate cancer xenografts in nude mice, Experiment 1. Format: in vivo. The conditions noted are these: 10 μg/day s.c., daily for 35 days; means±S.E. On the procedure:
(§1) Male nude mice were implanted s.c. with 3 mm^3 pieces of PC-3 human hormone-independent prostate cancer tissue on both flanks. When tumors reached a volume of approx. 50 mm^3, the mice were divided into 4 experimental groups with 8 to 10 animals in each group and received single daily injections for 35 days as follows: 1. Control (vehicle solution); 2. JMR-132 (10 μg/day s.c.); 3. Peptide 1109 (10 μg/day s.c.); 4. Peptide 11111 (10 μg/day s.c.); Tumor volumes were measured once a week. The experiment was ended on day 35 by sacrificing the mice under Isoflurane anesthesia. Resulting tumors were cleaned, weighed, and snap-frozen until further analyses. Statistical analyses of the measurement results were done by two-tailed t-test, p<0.05 being considered significant. Data are presented as the means±S.E.

For assay [7] the test system is unchanged. As to the kind of experiment: PC-3 human prostate cancer xenografts in nude mice, Experiment 2. Format: in vivo. On the procedure:
as §1
Experiment 2 was similar to Experiment 1. Experiment 2 was started when PC-3 tumors had grown to approximately 50 mm^3 in volume. At this time, the animals were divided into 5 experimental groups with 8 animals in each group, and received single daily injections for 14 days as follows: 1. Control (vehicle solution); 2. JMR-132 (10 μg/day s.c.); 3. Peptide 1109 (5 μg/day s.c.); 4. Peptide 11109 (5 μg/day s.c.); 5. Peptide 11109 (2 μg/day s.c.). Further details of Experiment 2 are the same as for Experiment 1

The test system of assay [8] is H-460 human non-small cell lung cancer. As to the kind of experiment: H-460 human non-SCLC xenografts in nude mice, Experiment 1. As to conditions: 10 μg/day s.c., 28 days; means±S.E. Format: in vivo. On the procedure: Male nude mice were implanted s.c. with 3 mm^3 pieces of H-460 human non-SCLC tumor tissue on both flanks. When tumors had grown to a mean volume of approximately 90 mm^3, the mice were randomly assigned into 4 experimental groups with 10 animals in each group and received single daily injections for 28 days as follows: 1. Control (vehicle solution); 2. JMR-132 (10 μg/day s.c.); 3. Peptide 1109 (10 μg/day s.c.); 4. Peptide 11111 (10 μg/day s.c.). Tumor volumes were measured once a week. The experiment was ended on day 28 by sacrificing the mice under Isoflurane anesthesia. Resulting tumors were cleaned, weighed, and snap-frozen until further analyses. Statistical analyses of the measurement results were done by two-tailed t-test, p<0.05 being considered significant. Data are presented as the means±S.E.

Turning to “[Ac-Tyr^1,D-Arg^2]hGH-RH(1-29)NH2 [standard antagonist]”, in assay [1] (a patient with acromegaly), the “Effect on GH levels” value was “reduced GH levels”. The “Effect on nocturnal GH secretion” value in assay [1] (normal subjects, 400 μg/kg) was “eliminated nocturnal GH secretion”. Also, the “Effect on activation of adenylate cyclase by hGH-RH(1-29)NH2” value in assay [2] is “prevent the activation of rat anterior pituitary adenylate cyclase”.
For the substance “[PhAc^0-Tyr^1, D-Arg^2, Cpa^6, Ala^8, Har^9, Tyr(Me)^10, His^11, Abu^15, Glu^17, His^20, Nle^27, D-Arg^28, Har^29]hGH-RH(1-29)NH2 [Peptide 1109]”, in assay [3], the “Inhibition of the growth of MDA-MB-231 human breast cancers” value was “about 75%”. Moreover, the “Number of regressing tumors” value in assay [4] (77 days) is 6. Also, the “Tumor growth after 77 days (%)” value in assay [4] (77 days, means±S.E.) is given as 225 ± 59 %. In addition, in assay [4] (day 77, means±S.E.), the “Tumor weights” value was found to be 170 ± 52 mg. The “Tumor doubling time” value in assay [4] (calculated without the regressing tumors) is listed as 93.6 ± 30.7 days. The “Tumors with total regression” value in assay [5] (5 μg/day s.c., 135 days) amounted to 5; in assay [5] (10 μg/day s.c., 135 days), 7. For the same substance, the “Tumor volume (mm^3) on day 135” value was 271 ± 98 mm^3 in assay [5] (5 μg/day s.c., 135 days) and 200 ± 123* mm^3 in assay [5] (10 μg/day s.c., 135 days). Further, the “Tumor weights (mg)” value in assay [5] (5 μg/day s.c.) was 565 ± 115 (6) mg; in assay [5] (10 μg/day s.c.) it was 605 ± 281 (4) mg. The “Inhibition of SK-Hep-1 hepatic cancer growth compared with reference peptide JMR-132” value in assay [5] (5 μg/day vs JMR-132 10 μg/day, 135 days) was “more potently inhibited the growth of SK-Hep-1 hepatic cancers than the reference peptide JMR-132”. In assay [6], the “Tumor growth after 5 weeks (%)” value was determined as 1502 ± 405%. Moreover, the “Tumor growth after 2 weeks (%)” value in assay [7] (5 μg/day s.c., 14 days) is given as 311%. In addition, the “Inhibition of PC-3 tumor growth compared with reference peptide JMR-132” value in assay [7] (Peptide 1109 5 μg/day, Peptide 11109 5 and 2 μg/day, JMR-132 10 μg/day, 14 days) was “inhibited the growth of PC-3 tumors more potently than reference peptide JMR-132”. Further, in assay [7] (tumor growth after 2 weeks, 5 μg/day s.c.), the “Inhibition (%)” value came out at 56.58%. Further, the “Tumor growth after 4 weeks (%)” value in assay [8] is recorded as 1042 ± 181%.
